{"source": "patent US20090029366A1", "about": "(priority 2007, published 2009)", "key": {"human HCN4 channel": {"target": "T1, human HCN4 channel (Homo sapiens, UniProt Q9Y3Q4)", "T1 construct": "expressed in transfected cells; host or cells: CHO-K1", "T1 sequence (Q9Y3Q4 1-1203)": "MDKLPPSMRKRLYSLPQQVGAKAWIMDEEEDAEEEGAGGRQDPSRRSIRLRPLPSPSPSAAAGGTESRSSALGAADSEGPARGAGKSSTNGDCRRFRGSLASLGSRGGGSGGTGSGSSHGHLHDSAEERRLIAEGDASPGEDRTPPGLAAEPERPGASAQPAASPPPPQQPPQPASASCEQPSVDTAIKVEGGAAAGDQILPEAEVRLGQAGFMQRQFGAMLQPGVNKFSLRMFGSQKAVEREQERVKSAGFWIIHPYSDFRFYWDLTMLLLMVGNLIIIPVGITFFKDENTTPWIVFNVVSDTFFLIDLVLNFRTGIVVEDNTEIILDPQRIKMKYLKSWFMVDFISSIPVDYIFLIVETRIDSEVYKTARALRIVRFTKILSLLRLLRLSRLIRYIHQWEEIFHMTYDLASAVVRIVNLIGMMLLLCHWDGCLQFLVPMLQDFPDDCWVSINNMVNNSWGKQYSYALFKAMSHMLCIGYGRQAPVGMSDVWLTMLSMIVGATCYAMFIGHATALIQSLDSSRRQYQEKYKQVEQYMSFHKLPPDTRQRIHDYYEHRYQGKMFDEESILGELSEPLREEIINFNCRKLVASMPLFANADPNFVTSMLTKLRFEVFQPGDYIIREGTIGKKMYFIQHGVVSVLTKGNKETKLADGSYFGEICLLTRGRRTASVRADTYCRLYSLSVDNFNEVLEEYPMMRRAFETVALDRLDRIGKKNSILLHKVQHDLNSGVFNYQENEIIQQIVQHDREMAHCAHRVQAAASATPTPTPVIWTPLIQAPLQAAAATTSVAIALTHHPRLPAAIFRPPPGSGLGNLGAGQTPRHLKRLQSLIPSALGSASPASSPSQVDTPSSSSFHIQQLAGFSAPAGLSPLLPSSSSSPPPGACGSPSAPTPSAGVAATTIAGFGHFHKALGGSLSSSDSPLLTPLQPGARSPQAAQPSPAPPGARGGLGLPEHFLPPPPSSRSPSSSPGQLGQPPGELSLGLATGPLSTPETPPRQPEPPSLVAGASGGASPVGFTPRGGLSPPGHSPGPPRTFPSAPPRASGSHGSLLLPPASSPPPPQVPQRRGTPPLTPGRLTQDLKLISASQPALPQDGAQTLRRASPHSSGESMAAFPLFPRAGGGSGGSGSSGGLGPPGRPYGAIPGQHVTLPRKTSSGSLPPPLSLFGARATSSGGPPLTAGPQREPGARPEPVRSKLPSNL", "assay": "Dose response of blockade of hyperpolarization (MPSD FLIPR), HCN4", "format": "cell-based", "method": "HEK-293H cells stably expressing a human HCN1 channel were plated and incubated in HBSS essentially as described in Examples 3 and 5. CHO-K1 cells stably expressing a human HCN4 channel were plated and incubated in HBSS essentially as described in Example 6. Varying concentrations of ZD7288 were added to HBSS for each of the test wells to determine the dose response of cells expressing HCN1 or HCN4 channels. The percent inhibition of hyperpolarization was calculated for a single dose using the following equation:\nThe data were fit with a Hill equation as described by the ratio 1/(1+([test agent]/IC50)^k, where IC50 is the concentration of a test agent required to inhibit one-half of the maximum current and k is the Hill coefficient.\nSimilarly, ZD7288 IC50 values on HCN4 channel were determined in a set of two experiments. […] No statistical difference was found between the two experiments."}, "human HCN2 channel": {"target": "T2, human HCN2 channel (Homo sapiens, UniProt Q9UL51)", "T2 construct": "expressed in transfected cells; host or cells: HEK-293H (clones #4, #8, #11, #12)", "T2 sequence (Q9UL51 1-889)": "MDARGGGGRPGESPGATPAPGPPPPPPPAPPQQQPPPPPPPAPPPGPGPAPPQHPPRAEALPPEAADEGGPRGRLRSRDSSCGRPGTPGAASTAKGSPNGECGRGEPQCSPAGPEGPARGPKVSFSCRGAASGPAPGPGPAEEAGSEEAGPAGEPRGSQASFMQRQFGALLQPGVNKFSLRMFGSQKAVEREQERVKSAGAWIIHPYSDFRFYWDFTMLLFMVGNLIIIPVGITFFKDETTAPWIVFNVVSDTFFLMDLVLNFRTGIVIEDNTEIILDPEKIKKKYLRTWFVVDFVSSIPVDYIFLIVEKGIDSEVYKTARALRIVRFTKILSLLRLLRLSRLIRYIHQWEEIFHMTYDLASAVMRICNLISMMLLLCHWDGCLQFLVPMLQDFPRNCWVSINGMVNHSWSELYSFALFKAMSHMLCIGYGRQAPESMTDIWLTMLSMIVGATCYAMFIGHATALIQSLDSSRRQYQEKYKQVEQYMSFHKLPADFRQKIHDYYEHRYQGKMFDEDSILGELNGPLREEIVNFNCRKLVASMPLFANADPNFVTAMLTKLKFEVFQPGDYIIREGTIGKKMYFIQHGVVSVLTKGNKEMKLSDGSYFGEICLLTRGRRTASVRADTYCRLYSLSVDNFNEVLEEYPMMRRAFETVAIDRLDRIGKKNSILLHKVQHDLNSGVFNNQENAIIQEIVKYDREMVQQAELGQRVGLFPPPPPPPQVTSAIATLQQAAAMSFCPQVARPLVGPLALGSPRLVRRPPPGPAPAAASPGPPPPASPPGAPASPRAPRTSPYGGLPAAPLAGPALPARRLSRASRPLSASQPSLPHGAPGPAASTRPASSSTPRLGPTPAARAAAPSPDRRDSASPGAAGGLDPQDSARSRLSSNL", "assay": "MPSD FLIPR 384 assay on HEK-293H clones expressing HCN2", "format": "cell-based", "settings": "30 μM ZD7288", "method": "HEK-293H cells were transfected with constructs encoding a human HCN2 channel essentially as described in Example 1. Cell lines were generated from a single clone according to standard protocols. The cells were incubated in HBSS/MPSD (control cells) or HBSS/MPSD and 30 μM ZD7288 (test cells) using a 384 well plate format, followed by the addition of the sodium/potassium diluent solution essentially as described in Examples 3 and 5. FIGS. 14A-14D show the effect of ZD7288 on each of the four clones expressing HCN2 channels. FIGS. 14A (clone #4), 14B (clone #8), 14C (clone #11), and 14D (clone #12) each depict the change in fluorescence over time for cells incubated in saline only (overlaid lower traces ) and for cells incubated in saline containing the HCN channel inhibitor ZD7288 (overlaid upper traces ). […] The Z-factor was between 0.56 and 0.64, and the covariance (CV) was between from 6.6 to 9.9."}}, "note": "pIC50: −log10 of the molar value. Where two headings read alike, the source gives them in different places."}
{"smiles": "CCN(c1ccccc1)c1cc(=NC)n(C)c(C)n1.Cl", "note": "[ZD7288]", "values": [{"measurement": "pIC50", "setting": "human HCN4 channel; CHO-K1, group 1, n=8, mean ± 2.31 μM, read-out: IC50 mean, group 1", "result": 5.04}, {"measurement": "pIC50", "setting": "human HCN4 channel; CHO-K1, group 2, n=8, mean ± 2.61 μM, read-out: IC50 mean, group 2", "result": 5.04}, {"measurement": "blockade of hyperpolarization for each of the HCN2 clones", "setting": "human HCN2 channel; 384 well, clones #4, #8, #11, #12", "result": "effectively blocked hyperpolarization"}, {"measurement": "Δfluorescence (saline + ZD7288), Mean", "setting": "human HCN2 channel; Clone #4, saline only −24421", "result": "−2392", "unit": "RFU"}, {"measurement": "Δfluorescence (saline + ZD7288), Mean", "setting": "human HCN2 channel; Clone #8, saline only −23600", "result": "−3006", "unit": "RFU"}, {"measurement": "Δfluorescence (saline + ZD7288), Mean", "setting": "human HCN2 channel; Clone #11, saline only −25477", "result": "−2413", "unit": "RFU"}, {"measurement": "Δfluorescence (saline + ZD7288), Mean", "setting": "human HCN2 channel; Clone #12, saline only −26367", "result": "−4834", "unit": "RFU"}]}
